Experimental data from patent US20210401823A1, “INHIBITORS AND ANTAGONISTS OF GPR84 FOR THE TREATMENT OF ENDOMETRIOSIS” (Bayer Pharma Aktiengesellschaft, priority 2017, published 2021).
pEC50, pIC50: −log10 of the molar value.

Columns and labels:
GPR84 [1] = molecular target: T1, GPR84 (Homo sapiens, UniProt Q9NQS5); experiment: GPR84 cAMP release assay, test for agonism (cAMP Hunter CHO-K1 GPR84 Gi cells, TR-FRET); format: cell-based; conditions: 60 min incubation
T1 construct: host or cells: CHO-K1 (cAMP Hunter CHO-K1 GPR84 Gi cells)
Protocol: For the resuscitation of frozen cells (cAMP Hunter™ CHO-K1 GPR84 Gi cells; DiscoverX; #95-0158C2) one vial is taken out of the liquid nitrogen storage and rapidly thawed in a water bath at 37° C. for some 1 to 3 minutes. Immediately afterwards the cells are transferred carefully by decanting into a 50 ml Falcon Tube containing 15 ml of pre-warmed full cell culture medium (HAM's F12; 10% FCS; no selection markers). Gentle swirling is used to assist their resuspension. In a next step, the cells are harvested straight away via low g centrifugation for 5 minutes (Hereaus Multifuge 4 KR; 400 rpm; rcf=44 g) to avoid over-compacting the cell pellet. Gentle decanting is used to get rid of the medium. Finally assay readiness is achieved by carefully re-suspending the cell pellet in 5 ml of the final assay medium (HAM's F12; 10% FCS; no selection markers). In a last step, cell viability and the actual cell number is determined (Omni Life Science; Casy Cell Counter/Analyzer) prior to correcting the volume for the final cell number to be seeded, i.e. 2500 cells/μl. […]
2 μl's of assay ready frozen cells are directly seeded into the wells of a non-sterile 384-well plate (Greiner; white; #784075; 5000 cells/well). […] Time resolved FRET (TR-FRET) signals are determined 60 minutes later using an appropriate HTRF reader (BMG Labtech: Pherastar). […]

PBMCs = experiment: In vitro assay 2: GPR84 ligand associated IL-1beta and TNFalpha release from PBMCs (ELISA); format: cell-based; conditions: for IL-1beta concentration / TNF alpha concentration: PBMCs stimulated with LPS 100 ng/ml 24 hours, treatment 4 h
Protocol: PBMCs were isolated by Ficoll-Paque Plus (Biochrom) density gradient centrifugation from whole blood. Briefly, PBMCs were centrifuged at 250 g for 30 sec and resuspended and cultured in RPMI 1640 medium [Gibco, CAT No. 11875093] with 10% heat-inactivated FBS, L-Glutamine (10 g/L), penicillin (100 IU/mL), and streptomycin ([…]) at 37° C. in a 5% CO2 environment. Cells were stimulated with LPS (100 ng/ml, Sigma-Aldrich) for 24 hours and treated with the GPR84 agonist 6-n-octylaminouracil and antagonist CMPD 139 for 4 h. IL-1beta and TNFalpha concentrations were analyzed by ELISA (Mesoscale Discovery, Germany).

[2] = system: Human eutopic endometrium tissue biopsies; experiment: Ex vivo assay 1: GPR84 ligand associated endometrial inflammation assay (cytokines in supernatant, Bio-Plex); format: cell-based; conditions: for IL-1beta in supernatant / TNFalpha in supernatant: endometrium slices, 21 hours
Protocol: Human eutopic endometrium tissue biopsies as surrogate for endometriosis lesion were cut into small slices, washed with HBSS buffer [ThermoFischer, 14175095] and incubated in DMEM/F12 medium [ThermoFischer, 11320-033], supplemented with 5% FCS for 3 hours. […] After 21 hours cytokines in the supernatant were quantified with the Bio-Plex platform according to the supplier's instructions. Data were analyzed using the GraphPad Software (La Jolla, USA). […] These mediators included IL1β and TNFalpha. […] Thus, activation of GPR84 contributes to the inflammation associated with endometriosis and antagonists are able to reduce inflammation

GPR84 [3] = molecular target: T1, GPR84; experiment: GPR84 cAMP release assay, test for antagonism of agonist-induced activation (cAMP Hunter CHO-K1 GPR84 Gi cells, TR-FRET); format: cell-based
Protocol: For the resuscitation of frozen cells (cAMP Hunter™ CHO-K1 GPR84 Gi cells; DiscoverX; #95-0158C2) one vial is taken out of the liquid nitrogen storage and rapidly thawed in a water bath at 37° C. for some 1 to 3 minutes. Immediately afterwards the cells are transferred carefully by decanting into a 50 ml Falcon Tube containing 15 ml of pre-warmed full cell culture medium (HAM's F12; 10% FCS; no selection markers). Gentle swirling is used to assist their resuspension. In a next step, the cells are harvested straight away via low g centrifugation for 5 minutes (Hereaus Multifuge 4 KR; 400 rpm; rcf=44 g) to avoid over-compacting the cell pellet. Gentle decanting is used to get rid of the medium. Finally assay readiness is achieved by carefully re-suspending the cell pellet in 5 ml of the final assay medium (HAM's F12; 10% FCS; no selection markers). In a last step, cell viability and the actual cell number is determined (Omni Life Science; Casy Cell Counter/Analyzer) prior to correcting the volume for the final cell number to be seeded, i.e. 2500 cells/μl. Cell seeding is achieved either with the help of multi-channel pipettes or appropriate bulk reagent dispensers.
In a first step, 1 μl of a 4× antagonist solution in the predefined test range (prepared in assay medium; HAM's F12; 10% FCS; 2 mM Glutamin; no selection markers) is added into the wells of a non-sterile 384-well plate (Greiner; white; #784075; Immediately afterwards 2 μl's of assay ready frozen cells are directly seeded into the plate (5000 cells/well)). […] Time resolved FRET (TR-FRET) signals are determined 60 minutes later using an appropriate HTRF reader (BMG Labtech: Pherastar).
Dose response experiments for GPR84 agonists were carried out using the cAMP Hunter™ CHO-K1 GPR84 Gi cell system (DiscoverX) (PathHunter® CHO-K1 hGPR84 β-Arrestin Cell Line cultured with DMF12 HAM, 9% FBS; 300 ug/ml Hygromycin; 800 ug/ml Geneticin; 2 mM Glut; 1% Pen/Strep) in a 384-well plate format. […] Following a 60-minute incubation cAMP levels were determined by TR-FRET as described above. […]

[4] = system: mouse CFA model of inflammation; experiment: CFA pain model, dynamic weight-bearing (DWB); format: in vivo; conditions: preventive, 24 h after CFA, vehicle 42.91 +/− 19.32
Protocol: The efficacy of CMPD139 in vivo on inflammatory pain was measured in inflamed paws after administration of complete Freunds' adjuvans (CFA) (24 h) in the dynamic weight-bearing (DWB) model. The effects of repeated preventive treatment with CMPD139 on pain following repeated oral and subcutaneous administration (3×) in the mouse CFA model of inflammation were investigated using a preventive setting. The GPR84 antagonist CMPD139 (90 or 30 mg/kg, p.o.+s.c., 3× doses) was administered 2 h before injection of CFA and 6-8 h later at day 0. At 24 h after CFA application, the third dose of CMPD139 was given 2 h before DWB testing. Statistical analysis was performed with one-way analysis of variance, followed by Bonferroni's multiple comparison test against vehicle control groups using the GraphPad PRISM software, *p<0.05.

[5] = 6-n-octylaminouracil (10 μM) alone
[6] = Decanoic Acid (10 μM) + CMPD. 139 (10 μM)
[7] = 6-n-octylaminouracil (10 μM) + CMPD 139 (10 μM)

T1 sequence (Q9NQS5 whole entry): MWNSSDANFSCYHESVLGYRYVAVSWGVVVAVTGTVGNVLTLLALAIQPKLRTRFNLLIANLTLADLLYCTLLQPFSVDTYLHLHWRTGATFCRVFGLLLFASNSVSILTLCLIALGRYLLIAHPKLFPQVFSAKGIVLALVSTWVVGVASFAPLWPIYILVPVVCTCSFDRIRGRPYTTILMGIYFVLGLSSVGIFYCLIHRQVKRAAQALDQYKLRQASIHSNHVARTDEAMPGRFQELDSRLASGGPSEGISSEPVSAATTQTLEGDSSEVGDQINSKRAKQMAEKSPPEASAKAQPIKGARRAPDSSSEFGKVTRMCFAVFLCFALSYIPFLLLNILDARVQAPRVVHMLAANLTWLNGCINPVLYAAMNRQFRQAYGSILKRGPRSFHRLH

## CCCCCCCCC(O)C(=O)O (stereo not shown) [2-OH-decanoic acid, 2-Hydroxydecanoic acid]
GPR84 [1]
  pEC50: 4.62

## CCCCCCCCNc1cc(=O)[nH]c(=O)[nH]1 [6-n-octylaminouracil, reference compound]
PBMCs; [5]
  IL-1beta concentration: 3427.673 pg/mL
  TNF alpha concentration: 955.6923 pg/mL

## CCCCCCCCCC(=O)O [Decanoic acid, reference compound]
[2]; Decanoic Acid (10 μM) alone
  IL-1beta in supernatant: 1.413 pg/mL
  TNFalpha in supernatant: 1.953 pg/mL

## Cc1ccc(-c2ccc3c(c2)CCn2c-3cc(OCC3COc4ncccc4O3)nc2=O)cn1 (stereo not shown) [CMPD 139]
GPR84 [3]; with 6-n-octylaminouracil 1.34 × 10^−7 M
  pIC50: 7.70
GPR84 [3]; with 40 × 10^−6 M 2-OH decanoic acid
  pIC50: 7.80
GPR84 [3]; with embelin 6.00 10^−6 M
  pIC50: 8.03
[2]; CMPD 139 at 10^−5 M combined with decanoic acid
  Effect on cytokine and growth factor levels compared to agonist alone: reduced all measured cytokine and growth factors
[2]; [6]
  IL-1beta in supernatant: 0.9600 pg/mL
  TNFalpha in supernatant: 1.270 pg/mL
PBMCs; [7]
  IL-1beta concentration: 1933.011 pg/mL
  TNF alpha concentration: 479.6307 pg/mL
PBMCs; LPS-stimulated PBMCs, with 6-n-octylaminouracil
  Effect on GPR84 elevated IL-1beta and TNFalpha levels: reduced GPR84 elevated IL-1beta and TNFalpha levels
[4]; 3x 30 + 30 mg/kg p.o./s.c.
  Weight distribution (% Ipsi/contra) 2 h post last dose mean +/− SD: 55.82 +/− 17.38 % Ipsi/contra
[4]; 3x 90 + 90 mg/kg p.o./s.c., *p<0.05 vs vehicle
  Weight distribution (% Ipsi/contra) 2 h post last dose mean +/− SD: 60.37 +/− 15.45* % Ipsi/contra
